# Laboratory results taken from PubChem BioAssay (NCI).
#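 96-well plates; 48 h exposure; 5 concentrations. Endpoints by linear interpolation between flanking doses. Not reached: highest tested concentration assigned. GI50 = concentration required for 50% inhibition of growth. TGI denotes the concentration required for complete inhibition of growth.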
# Columns and labels:
# Assay in all cases: DTP human tumour cell line panel, 48 h
# CAKI-1 renal = tested on: CAKI-1 renal
# MALME-3M melanoma = tested on: MALME-3M melanoma
# MDA-MB-231 breast = tested on: MDA-MB-231 breast
# IGROV1 ovarian = tested on: IGROV1 ovarian
# 786-0 renal = tested on: 786-0 renal
# UACC-257 melanoma = tested on: UACC-257 melanoma
# T-47D breast = tested on: T-47D breast
# HOP-92 NSCLC = tested on: HOP-92 NSCLC
# K-562 leukemia = tested on: K-562 leukemia
# NCI-H226 lung = tested on: NCI-H226 lung
# OVCAR-8 ovarian = tested on: OVCAR-8 ovarian
# DU-145 prostate = tested on: DU-145 prostate
# SN12C renal = tested on: SN12C renal
# COLO 205 colon = tested on: COLO 205 colon
# SR leukemia = tested on: SR leukemia
# A549 NSCLC = tested on: A549 NSCLC
# SNB-75 CNS = tested on: SNB-75 CNS
# MOLT-4 leukemia = tested on: MOLT-4 leukemia
# OVCAR-4 ovarian = tested on: OVCAR-4 ovarian
# SK-MEL-5 melanoma = tested on: SK-MEL-5 melanoma
# A498 renal = tested on: A498 renal
# PC-3 prostate = tested on: PC-3 prostate
# HS 578T breast = tested on: HS 578T breast
# SK-OV-3 ovarian = tested on: SK-OV-3 ovarian
# MCF7 breast = tested on: MCF7 breast
# M14 melanoma = tested on: M14 melanoma
smiles,measurement,setting,value
Cc1cc(N2CCN(c3ccnc4cc(Cl)ccc34)CC2)nc(NC2CCCCC2)n1,GI50,CAKI-1 renal,1.63 µM
same,TGI,CAKI-1 renal,3.6 µM
same,GI50,MALME-3M melanoma,1.89 µM
same,TGI,MALME-3M melanoma,3.83 µM
same,GI50,MDA-MB-231 breast,2 µM
same,TGI,MDA-MB-231 breast,4.09 µM
same,GI50,IGROV1 ovarian,2.35 µM
same,TGI,IGROV1 ovarian,5.35 µM
same,GI50,786-0 renal,1.57 µM
same,TGI,786-0 renal,3.05 µM
same,GI50,UACC-257 melanoma,1.86 µM
same,TGI,UACC-257 melanoma,3.92 µM
same,GI50,T-47D breast,1.89 µM
same,TGI,T-47D breast,4.7 µM
same,GI50,HOP-92 NSCLC,1.08 µM
same,TGI,HOP-92 NSCLC,3.04 µM
same,GI50,K-562 leukemia,2.1 µM
same,TGI,K-562 leukemia,5.64 µM
same,GI50,NCI-H226 lung,3.23 µM
same,TGI,NCI-H226 lung,15 µM
same,GI50,OVCAR-8 ovarian,2.39 µM
same,TGI,OVCAR-8 ovarian,6.35 µM
same,GI50,DU-145 prostate,3.51 µM
same,TGI,DU-145 prostate,11.2 µM
same,GI50,SN12C renal,1.82 µM
same,TGI,SN12C renal,3.73 µM
same,GI50,COLO 205 colon,1.65 µM
same,TGI,COLO 205 colon,3.34 µM
same,GI50,SR leukemia,1.93 µM
same,TGI,SR leukemia,4.73 µM
same,GI50,A549 NSCLC,2.02 µM
same,TGI,A549 NSCLC,4.48 µM
same,GI50,SNB-75 CNS,1.79 µM
same,TGI,SNB-75 CNS,3.95 µM
same,GI50,MOLT-4 leukemia,2.38 µM
same,TGI,MOLT-4 leukemia,5.62 µM
same,GI50,OVCAR-4 ovarian,2.08 µM
same,TGI,OVCAR-4 ovarian,8.77 µM
same,GI50,SK-MEL-5 melanoma,1.73 µM
same,TGI,SK-MEL-5 melanoma,3.3 µM
same,GI50,A498 renal,0.118 µM
same,TGI,A498 renal,3.21 µM
same,GI50,PC-3 prostate,1.47 µM
same,TGI,PC-3 prostate,3.02 µM
same,GI50,HS 578T breast,2.1 µM
same,TGI,HS 578T breast,6.62 µM
same,GI50,SK-OV-3 ovarian,2.02 µM
same,TGI,SK-OV-3 ovarian,4.51 µM
same,GI50,MCF7 breast,1.57 µM
same,TGI,MCF7 breast,3.47 µM
same,GI50,M14 melanoma,1.7 µM
same,TGI,M14 melanoma,3.36 µM
